IC50 data for twelve compounds are collected here from patent publication US20100311714A1, “1H-IMIDAZO[4,5-c]QUINOLINONE COMPOUNDS” (priority 2009, published 2010).

The subject of assay [1] is S6 Ribosomal Protein phosphorylation Ser235/236 in TSC1 null mouse embryo fibroblast (MEF) cells. Put plainly: Reverse protein array, S6 Ribosomal Protein phosphorylation in TSC1 null MEF cells. Type of assay: cell-based. To be noted: 1 h, TSC1-/- MEFs, 60 minutes, read-out: p-S6 IC50. The method, boiled down: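 Phospho-S6 (Ser235/236) was quantified by reverse protein array of cell lysates with a phospho-specific primary antibody. […]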

Assay [2] concerns PKB Ser473 phosphorylation in Rat1-myr-HA-p110 beta cells. As to the kind of experiment: Reverse protein array, PKB Ser473 phosphorylation in Rat1-myr-HA-p110 beta cells. In kind it is cell-based. To be noted: Rattus norvegicus, 0.5 h, 30 minutes compound incubation, read-out: p-PKB/IC50_beta.

For `COC1CCN(c2ccc(-n3c(=O)n(C)c4cnc5ccc(-c6cncc(C(C)(C)O)c6)cc5c43)c(C)n2)C1` (stereo not drawn) [Example 28.1, 8-[5-(1-Hydroxy-1-methyl-ethyl)-pyridin-3-yl]-1-[6-(3-methoxy-pyrrolidin-1-yl)-2-methyl-pyridin-3-yl]-3-methyl-1,3-dihydro-imidazo[4,5-c]quinolin-2-one], the values for the IC50 in assay [1] and in assay [2] were 1 nM and 36.7 nM, respectively.

In the case of `CNc1ncc(-c2ccc3ncc4c(c3c2)n(-c2ccc(N3CC(O)C3)nc2C)c(=O)n4C)cc1F` [Example 29.3, 8-(5-Fluoro-6-methylamino-pyridin-3-yl)-1-[6-(3-hydroxy-azetidin-1-yl)-2-methyl-pyridin-3-yl]-3-methyl-1,3-dihydro-imidazo[4,5-c]quinolin-2-one], the IC50 in assay [1] is 7.8 nM; in assay [2], 31.9 nM.

Regarding `CNc1ncc(-c2ccc3ncc4c(c3c2)n(-c2ccc(N3CC(O)C3)nc2C)c(=O)n4C)cc1C(F)(F)F` [Example 29.4, 1-[6-(3-Hydroxy-azetidin-1-yl)-2-methyl-pyridin-3-yl]-3-methyl-8-(6-methylamino-5-trifluoromethyl-pyridin-3-yl)-1,3-dihydro-imidazo[4,5-c]quinolin-2-one], the IC50 in assay [1] came to 1.7 nM; in assay [2], 21.9 nM.

Turning to `COc1cc(-c2ccc3ncc4c(c3c2)n(-c2ccc(N3CC(O)C3)nc2C)c(=O)n4C)cnc1CO` [Example 29.5, 1-[6-(3-Hydroxy-azetidin-1-yl)-2-methyl-pyridin-3-yl]-8-(6-hydroxymethyl-5-methoxy-pyridin-3-yl)-3-methyl-1,3-dihydro-imidazo[4,5-c]quinolin-2-one], the IC50 in assay [1] is 39.1 nM; in assay [2], 374 nM.

`COc1ncc(-c2ccc3ncc4c(c3c2)n(-c2ccc(N3CC(O)C3)nc2C)c(=O)n4C)c(OC)n1` [Example 29.6, 8-(2,4-Dimethoxy-pyrimidin-5-yl)-1-[6-(3-hydroxy-azetidin-1-yl)-2-methyl-pyridin-3-yl]-3-methyl-1,3-dihydro-imidazo[4,5-c]quinolin-2-one]: the IC50 in assay [1] came to 5 nM; in assay [2], 208 nM.

For `CNc1ncc(-c2ccc3ncc4c(c3c2)n(-c2ccc(N3CC[C@H](O)C3)nc2C)c(=O)n4C)cc1F` [Example 32.2, 8-(5-Fluoro-6-methylamino-pyridin-3-yl)-1-[6-((S)-3-hydroxy-pyrrolidin-1-yl)-2-methyl-pyridin-3-yl]-3-methyl-1,3-dihydro-imidazo[4,5-c]quinolin-2-one], the figures for the IC50 in assay [1] and in assay [2] were 1 nM and 15.2 nM, respectively.

Take `COc1ncc(-c2ccc3ncc4c(c3c2)n(-c2ccc(N3CC[C@H](O)C3)nc2C)c(=O)n4C)c(OC)n1` [Example 32.3, 8-(2,4-Dimethoxy-pyrimidin-5-yl)-1-[6-((S)-3-hydroxy-pyrrolidin-1-yl)-2-methyl-pyridin-3-yl]-3-methyl-1,3-dihydro-imidazo[4,5-c]quinolin-2-one]: the IC50 in assay [1] is 4 nM; in assay [2], 80 nM.

`CNc1ncc(-c2ccc3ncc4c(c3c2)n(-c2ccc(N3CC[C@H](O)C3)nc2C)c(=O)n4C)cc1C(F)(F)F` [Example 32.5, 1-[6-((S)-3-Hydroxy-pyrrolidin-1-yl)-2-methyl-pyridin-3-yl]-3-methyl-8-(6-methylamino-5-trifluoromethyl-pyridin-3-yl)-1,3-dihydro-imidazo[4,5-c]quinolin-2-one]: the values for the IC50 in assay [1] and in assay [2] were 1 nM and 11 nM, respectively.

For `Cc1nc(N2CC[C@H](O)C2)ccc1-n1c(=O)n(C)c2cnc3ccc(-c4cncc(OC(C)C)c4)cc3c21` [Example 32.8, 1-[6-((S)-3-Hydroxy-pyrrolidin-1-yl)-2-methyl-pyridin-3-yl]-8-(5-isopropoxy-pyridin-3-yl)-3-methyl-1,3-dihydro-imidazo[4,5-c]quinolin-2-one], the IC50 in assay [1] was found to be 2.2 nM; in assay [2], 63.7 nM.

As to `Cc1nc(C(F)(F)F)ccc1-n1c(=O)n(C)c2cnc3ccc(-c4cncc(C(C)(C)O)c4)cc3c21` [Example 33.1, 8-[5-(1-Hydroxy-1-methyl-ethyl)-pyridin-3-yl]-3-methyl-1-(2-methyl-6-trifluoromethyl-pyridin-3-yl)-1,3-dihydro-imidazo[4,5-c]quinolin-2-one], the IC50 worked out at 2 nM in assay [1] and 50 nM in assay [2].

For the compound `CCNc1ncc(-c2ccc3ncc4c(c3c2)n(-c2ccc(N3CC[C@@H](O)C3)nc2C)c(=O)n4C)cc1C(F)(F)F` [Example 34.2, 8-(6-Ethylamino-5-trifluoromethyl-pyridin-3-yl)-1-[6-((R)-3-hydroxy-pyrrolidin-1-yl)-2-methyl-pyridin-3-yl]-3-methyl-1,3-dihydro-imidazo[4,5-c]quinolin-2-one], the IC50 in assay [1] came out at 1.9 nM; in assay [2] it was 15.2 nM.

Take `CCNc1ncc(-c2ccc3ncc4c(c3c2)n(-c2ccc(N3CC[C@@H](O)C3)nc2C)c(=O)n4C)cc1COCC` [Example 34.4, 8-(5-Ethoxymethyl-6-ethylamino-pyridin-3-yl)-1-[6-((R)-3-hydroxy-pyrrolidin-1-yl)-2-methyl-pyridin-3-yl]-3-methyl-1,3-dihydro-imidazo[4,5-c]quinolin-2-one]: the IC50 in assay [1] was 8 nM; in assay [2] it was 27.9 nM.
